Experimental data from US12629374B2, “Antimalarial agents” (Merck Sharp & Dohme LLC, priority 2020, dated 2026).

The compounds below were run on ring stage parasites (assay: Parasite growth potency assay, 72 hours, LDH readout). Details: 72 h, parasite growth measured by LDH assay after 72 hours at 37° C.; 0.7% rings, 2% haematocrit; read-out: EC50.
Format: cell-based
Outline: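 Parasite growth was quantified by LDH assay after a −80 °C freeze-thaw. Before that, compound was incubated for 72 h at 37 °C under humidified gas with ring-stage cultures adjusted to 0.7% parasitemia and 2% haematocrit in serum- and albumax-supplemented RPMI-Hepes.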
`CCC1(CC)CC(=O)N([C@H](CCOC(F)F)c2cccc(C(=O)N[C@@H]3c4ccccc4OC(C)(C)[C@H]3O)c2)C(=N)N1` [Example 159, [1-[3-(difluoromethoxy)-1-[3-[[(3S,4R)-3-hydroxy-2,2-dimethyl-chroman-4-yl]carbamoyl]phenyl]propyl]-4,4-diethyl-6-oxo-hexahydropyrimidin-2-ylidene]ammonium; 2,2,2-trifluoroacetate] gave an EC50 of 0.8 nM.
Work on `CCC1(CC)CC(=O)N([C@H](CCOC(F)F)c2cccc(C(=O)N[C@H]3CC(C)(C)Oc4ccccc43)c2)C(=N)N1` [Example 160, [1-[3-(difluoromethoxy)-1-[3-[[(4S)-2,2-dimethylchroman-4-yl]carbamoyl]phenyl]propyl]-4,4-diethyl-6-oxo-hexahydropyrimidin-2-ylidene]ammonium; 2,2,2-trifluoroacetate] yielded an EC50 of 0.5 nM.
For `CCC1(CC)CC(=O)N([C@H](CCS(C)(=O)=O)c2cccc(C(=O)N[C@H]3CCOc4ccccc43)c2)C(=N)N1` [Example 161, [1-[1-[3-[[(4S)-chroman-4-yl]carbamoyl]phenyl]-3-methylsulfonyl-propyl]-4,4-diethyl-6-oxo-hexahydropyrimidin-2-ylidene]ammonium; 2,2,2-trifluoroacetate], the EC50 was 23 nM.
For `CCC1(CC)CC(=O)N([C@H](CCS(C)(=O)=O)c2cccc(C(=O)N[C@H]3C[C@H](C(F)(F)F)Oc4ccccc43)c2)C(=N)N1` [Example 162, [4,4-diethyl-1-[3-methylsulfonyl-1-[3-[[(2R,4S)-2-(trifluoromethyl)chroman-4-yl]carbamoyl]phenyl]propyl]-6-oxo-hexahydropyrimidin-2-ylidene]ammonium; 2,2,2-trifluoroacetate], the EC50 was 5.2 nM.
Work on `CCC[C@H](c1cccc(C(=O)N[C@@H]2c3ccccc3OC[C@@]2(C)O)c1)N1C(=N)NC(CC)(CC)CC1=O` [Example 163A, 3-[(1R)-1-(4,4-diethyl-2-imino-6-oxo-hexahydropyrimidin-1-yl)butyl]-N-[(3S,4R)-3-hydroxy-3-methyl-chroman-4-yl]benzamide] yielded an EC50 of 0.3 nM.
`CCC1(CC)CC(=O)N([C@H](CCOC(F)F)c2cccc(C(=O)N[C@H]3CCOc4ccccc43)c2)C(=N)N1` [Example 164, [1-[1-[3-[[(4S)-chroman-4-yl]carbamoyl]phenyl]-3-(difluoromethoxy)propyl]-4,4-diethyl-6-oxo-hexahydropyrimidin-2-ylidene]ammonium; 2,2,2-trifluoroacetate] gave an EC50 of 0.9 nM.
`CCC1(CC)CC(=O)N([C@H](CCOC)c2cccc(C(=O)N[C@H]3c4cc(F)ccc4OC(C)(C)[C@@H]3O)c2)C(=N)N1` [Example 165A, [4,4-diethyl-1-[(1R)-1-[3-[[(3R,4S)-6-fluoro-3-hydroxy-2,2-dimethyl-chroman-4-yl]carbamoyl]phenyl]-3-methoxy-propyl]-6-oxo-hexahydropyrimidin-2-ylidene]ammonium; 2,2,2-trifluoroacetate] was tested, and the EC50 was 41.4 nM.
Compound `CCC1(CC)CC(=O)N([C@H](CCOC)c2cccc(C(=O)N[C@@H]3c4cc(F)ccc4OC(C)(C)[C@H]3O)c2)C(=N)N1` [Example 165B, [4,4-diethyl-1-[(1R)-1-[3-[[(3S,4R)-6-fluoro-3-hydroxy-2,2-dimethyl-chroman-4-yl]carbamoyl]phenyl]-3-methoxy-propyl]-6-oxo-hexahydropyrimidin-2-ylidene]ammonium; 2,2,2-trifluoroacetate] has an EC50 of 0.4 nM.
`COCC[C@H](c1cccc(C(=O)N[C@@H]2c3ccccc3C3(CC3)[C@H]2O)c1)N1C(=N)NC(C)(C)CC1=O` [Example 167, [1-[(1R)-1-[3-[(2′-hydroxyspiro[cyclopropane-1,3′-indane]-1′-yl)carbamoyl]phenyl]-3-methoxy-propyl]-4,4-dimethyl-6-oxo-hexahydropyrimidin-2-ylidene]ammonium; 2,2,2-trifluoroacetate] showed an EC50 of 3.1 nM.
`CCC1(C)CC(=O)N([C@H](CCOC)c2cccc(C(=O)N[C@@H]3c4ccccc4C4(CC4)[C@H]3O)c2)C(=N)N1` (stereo partly drawn) [Example 168, [4-ethyl-1-[(1R)-1-[3-[(2′-hydroxyspiro[cyclopropane-1,3′-indane]-1′-yl)carbamoyl]phenyl]-3-methoxy-propyl]-4-methyl-6-oxo-hexahydropyrimidin-2-ylidene]ammonium; 2,2,2-trifluoroacetate] showed an EC50 of 1.4 nM.
`COCC[C@H](c1cc(F)cc(C(=O)N[C@@H]2c3ccccc3C[C@H]2O)c1)N1C(=N)NC(C)(C)CC1=O` [Example 169, [1-[1-[3-fluoro-5-[[(1R,2R)-2-hydroxyindan-1-yl]carbamoyl]phenyl]-3-methoxy-propyl]-4,4-dimethyl-6-oxo-hexahydropyrimidin-2-ylidene]ammonium; 2,2,2-trifluoroacetate] gave an EC50 of 4.7 nM.
`CCC1(CC)CC(=O)N([C@H](CCOC)c2cccc(C(=O)N[C@@H]3c4cc(F)ccc4C[C@H]3O)c2)C(=N)N1` [Example 170, [4,4-diethyl-1-[(1R)-1-[3-[(6-fluoro-2-hydroxy-indan-1-yl)carbamoyl]phenyl]-3-methoxy-propyl]-6-oxo-hexahydropyrimidin-2-ylidene]ammonium; 2,2,2-trifluoroacetate] gave an EC50 of 0.7 nM.
For `CCOCC[C@H](c1cccc(C(=O)N[C@@H]2c3ccccc3C[C@H]2O)c1)N1C(=N)NC(C)(C)CC1=O` [Example 171, [1-[3-ethoxy-1-[3-[[(1R,2R)-2-hydroxyindan-1-yl]carbamoyl]phenyl]propyl]-4,4-dimethyl-6-oxo-hexahydropyrimidin-2-ylidene]ammonium; 2,2,2-trifluoroacetate], the EC50 was 5.2 nM.
`CC[C@@]1(C)CC(=O)N([C@H](CCOC(F)F)c2cccc(C(=O)N[C@@H]3c4ccccc4C[C@H]3O)c2)C(=N)N1` [Example 172, [(4S)-1-[3-(difluoromethoxy)-1-[3-[[(1R,2R)-2-hydroxyindan-1-yl]carbamoyl]phenyl]propyl]-4-ethyl-4-methyl-6-oxo-hexahydropyrimidin-2-ylidene]ammonium; 2,2,2-trifluoroacetate] showed an EC50 of 1.7 nM.
`COCC[C@H](c1cc(F)cc(C(=O)N[C@H]2CC(C)(C)Oc3ccccc32)c1)N1C(=N)NC(C)(C)CC1=O` [Example 173, [1-[1-[3-[[(4S)-2,2-dimethylchroman-4-yl]carbamoyl]-5-fluoro-phenyl]-3-methoxy-propyl]-4,4-dimethyl-6-oxo-hexahydropyrimidin-2-ylidene]ammonium; 2,2,2-trifluoroacetate] showed an EC50 of 1 nM.
In the case of `COCC[C@H](c1cc(F)cc(C(=O)N[C@@H]2c3ccccc3OC(C)(C)[C@H]2O)c1)N1C(=N)NC(C)(C)CC1=O` [Example 174, [1-[1-[3-fluoro-5-[[(3S,4R)-3-hydroxy-2,2-dimethyl-chroman-4-yl]carbamoyl]phenyl]-3-methoxy-propyl]-4,4-dimethyl-6-oxo-hexahydropyrimidin-2-ylidene]ammonium; 2,2,2-trifluoroacetate], the EC50 is reported as 0.9 nM.
Work on `CCC1(CC)CC(=O)N([C@H](CCOC)c2cc(F)cc(C(=O)N[C@@H]3c4ccccc4OC3(C)COC)c2)C(=N)N1` (stereo partly drawn) [Example 176B, [4,4-diethyl-1-[(1R)-1-[3-fluoro-5-[[2-(methoxymethyl)-2-methyl-3H-benzofuran-3-yl]carbamoyl]phenyl]-3-methoxy-propyl]-6-oxo-hexahydropyrimidin-2-ylidene]ammonium; 2,2,2-trifluoroacetate] yielded an EC50 of 0.9 nM.
Compound `COCC[C@H](c1cccc(C(=O)N[C@H]2CC(C)(C)Oc3ccccc32)c1)N1C(=N)NC(C)(C)CC1=O` [Example 177, [1-[(1R)-1-[3-[[(4S)-2,2-dimethylchroman-4-yl]carbamoyl]phenyl]-3-methoxy-propyl]-4,4-dimethyl-6-oxo-hexahydropyrimidin-2-ylidene]ammonium; 2,2,2-trifluoroacetate] has an EC50 of 2.1 nM.
Compound `COCC[C@H](c1cccc(C(=O)N[C@@H]2c3ccccc3OC(C)(C)[C@H]2O)c1)N1C(=N)NC(C)(C)CC1=O` [Example 178, [1-[(1R)-1-[3-[[(3S,4R)-3-hydroxy-2,2-dimethyl-chroman-4-yl]carbamoyl]phenyl]-3-methoxy-propyl]-4,4-dimethyl-6-oxo-hexahydropyrimidin-2-ylidene]ammonium; 2,2,2-trifluoroacetate] has an EC50 of 2.4 nM.

Same assay, conditions: parasite growth measured by LDH assay after 72 hours at 37° C.; 0.7% rings, 2% haematocrit; read-out: EC50
`CCC[C@H](c1cccc(C(=O)N[C@@H]2c3ccccc3OC[C@]2(C)O)c1)N1C(=N)NC(CC)(CC)CC1=O` [Example 163B, 3-[(1R)-1-(4,4-diethyl-2-imino-6-oxo-hexahydropyrimidin-1-yl)butyl]-N-[(3R,4R)-3-hydroxy-3-methyl-chroman-4-yl]benzamide] showed an EC50 of 0.4 nM.
In the case of `COCC[C@H](c1cccc(C(=O)N[C@@H]2c3ccccc3C[C@@]2(C)O)c1)N1C(=N)NC(C)(C)CC1=O` [Example 166A, N-[(1R,2R)-2-hydroxy-2-methyl-indan-1-yl]-3-[(1R)-1-(2-imino-4,4-dimethyl-6-oxo-hexahydropyrimidin-1-yl)-3-methoxy-propyl]benzamide], the EC50 is reported as 52.1 nM.
`COCC[C@H](c1cccc(C(=O)N[C@@H]2c3ccccc3C[C@]2(C)O)c1)N1C(=N)NC(C)(C)CC1=O` [Example 166B, N-[(1R,2S)-2-hydroxy-2-methyl-indan-1-yl]-3-[(1R)-1-(2-imino-4,4-dimethyl-6-oxo-hexahydropyrimidin-1-yl)-3-methoxy-propyl]benzamide] was tested, and the EC50 was 17.6 nM.
`COCC[C@H](c1cc(F)cc(C(=O)N[C@@H]2c3ccccc3C[C@@]2(C)O)c1)N1C(=N)NC(C)(C)CC1=O` [Example 175A, 3-fluoro-N-[(1R,2R)-2-hydroxy-2-methyl-indan-1-yl]-5-[1-(2-imino-4,4-dimethyl-6-oxo-hexahydropyrimidin-1-yl)-3-methoxy-propyl]benzamide] gave an EC50 of 37.1 nM.
In the case of `COCC[C@H](c1cc(F)cc(C(=O)N[C@@H]2c3ccccc3C[C@]2(C)O)c1)N1C(=N)NC(C)(C)CC1=O` [Example 175B, 3-fluoro-N-[(1R,2S)-2-hydroxy-2-methyl-indan-1-yl]-5-[1-(2-imino-4,4-dimethyl-6-oxo-hexahydropyrimidin-1-yl)-3-methoxy-propyl]benzamide], the EC50 is reported as 9.2 nM.
